Source: US20050054667A1, “Method of treating or inhibiting anti-arrhythmic events in male human patients” (Solvay Pharmaceuticals GmbH, priority 2003, published 2005)

Experiments:
[1] = system: human patients with atrial fibrillation; assay: Phase II clinical study: conversion of recent onset atrial fibrillation to normal sinus rhythm (NSR) by intravenous tedisamil; assay type: in vivo; details: ITT sample, DC cardioversion excluded
Description: (§1) This first clinical study in humans was a Multi-Center, Double-Blind, Randomized, Placebo-Controlled, Sequential Ascending Dose Groups Study to evaluate the Efficacy and Safety of Intravenous Tedisamil in the Rapid Conversion to Normal Sinus Rhythm in Patients with Atrial Fibrillation or Flutter. The active ingredient used was tedisamil dihydrochloride. The study was designed as a phase II study and executed in 35 to 40 centers in 3 to 4 countries. Study duration: Screening: up to 48 hours; treatment (in-patient): single 30-minute infusion; safety follow up: 24 hours (in-patient) with continuous telemetry and 28 day safety follow up.
(§2) Secondary efficacy objectives were to determine the percentage of human patients remaining in sinus rhythm at 2.5 hours after initiation of the intravenous infusion of tedisamil versus placebo; to determine the percentage of human patients remaining in sinus rhythm at 24 hours after initiation of the intravenous infusion of tedisamil versus placebo; to determine the time to conversion after the start of the infusion of tedisamil versus placebo; and to determine the dose- and plasma concentration-response relationships of tedisamil versus placebo. Safety objective: determining the safety and tolerability of tedisamil versus placebo.
(§3) The following methodology for the study in humans was applied: A multi-center, double-blind, randomized, placebo-controlled, sequential ascending dose groups study to evaluate the efficacy and safety of intravenous tedisamil versus placebo. The study drug was infused over 30 minutes, receiving half the dose within 10 minutes and half the dose within the remaining 20 minutes The first patient group received 0.4 mg/kg of body weight, infused as 0.2 mg/kg of body weight within 10 minutes, continued with 0.2 mg/kg of body weight infused within 20 minutes. The next higher dose 0.6 mg/kg of body weight (0.3 mg/kg of body weight infused over 10 min, continued with 0.3 mg/kg of body weight infused over 20 minutes) was only administered after the initial dose has been assessed (blinded) and found to be safe. A third stage may be added with a higher dose. Tedisamil blood concentrations were assessed during the infusion (at 10 and 30 minutes), at conversion to normal sinus rhythm, at recurrence and 24 hours after start of infusion.
(§4) The criteria for patient inclusion in the study was atrial fibrillation or flutter with a duration of more than 3 hours and less than 48 hours, occurring as a first or recurrent episode.
(§5) • Tedisamil (0.4 mg/kg body weight) • Tedisamil (0.6 mg/kg body weight) Both dosages were given as an intravenous regimen. Reference Therapy, Dose and Mode of Administration:
(§6) The total infusion time is 30 minutes, with half the dose infused within 10 minutes, and half the dose infused within the remaining 20 minutes.
(§7) Primary efficacy: the percentage of human patients converted to normal sinus rhythm (for at least 60 seconds) at any time within 2.5 hours after the initiation of the infusion of study drug.
(§8) All efficacy variables were evaluated separately for human patients with atrial fibrillation and human patients with atrial flutter. Percentages of conversion were compared among treatment groups using a logistic regression model with factors for treatment group and center. Times to conversion were compared among treatment groups using a Cox proportional hazards model with factors for treatment group and center. Dose-response and concentration-response relationships were examined using descriptive statistics.

[2] = system: human patients with atrial flutter; assay: Phase II clinical study: conversion of atrial flutter to normal sinus rhythm (NSR) by intravenous tedisamil; assay type: in vivo; details: ITT sample, DC cardioversion excluded
Description: as §1, §2, §3, §4
• Tedisamil (0.4 mg/kg body weight) • Tedisamil (0.6 mg/kg body weight) Both dosages were given as an intravenous regimen. Reference Therapy, Dose and Mode of Administration: […]
All efficacy variables were evaluated separately for human patients with atrial fibrillation and human patients with atrial flutter. […]

[3] = system: Patients with Atrial Fibrillation or Flutter; assay: Phase II clinical study: conversion to NSR, overall (atrial fibrillation or flutter); assay type: in vivo, human; details: for Conversion to NSR at any time within 2.5 hrs after start of infusion: Overall (fibrillation + flutter), ITT sample, DC cardioversion excluded
Description: as §1, §2, §3, §4, §5, §6, §7, §8

human patients = assay: Clinical safety and tolerability of intravenous tedisamil (TdP, safety issues); assay type: in vivo
Description: as §2
Physical examination, ECG, 24-hour Holter monitoring, vital signs, laboratory evaluations and adverse events.

[4] = system: Subjects with Recent Onset Atrial Fibrillation or Flutter; assay: Phase III clinical study: rapid conversion to NSR by intravenous tedisamil sesquifumarate; assay type: in vivo, human; details: active ingredient tedisamil sesquifumarate
Description: This second clinical study in humans was a Multi-Center, Double-Blind, Randomized, Placebo-Controlled, Parallel Design Study to evaluate the Efficacy and Safety of Intravenous Tedisamil Sesquifumarate in the Rapid Conversion to Normal Sinus Rhythm in Subjects with Recent Onset Atrial Fibrillation or Flutter.
The active ingredient used was tedisamil sesqifumarate. […] Study duration: Screening: up to 48 hours; treatment (in-patient): single 30-minute infusion; safety follow up: 24 hours (in-patient) with continuous telemetry and 28 day safety follow up. […]

[5] = female, 0.4 mg/kg i.v. 30-min infusion
[6] = female, 0.6 mg/kg i.v. 30-min infusion
[7] = male, 0.4 mg/kg i.v. 30-min infusion
[8] = male, 0.6 mg/kg i.v. 30-min infusion

C1CCC2(C1)C1CN(CC3CC3)CC2CN(CC2CC2)C1 [Tedisamil, N,N′-dicyclopropyl-methyl-9,9-tetramethylen-3,7-diazabicyclo[3,3,1]nonane]
Conversion to NSR at any time within 2.5 hrs after start of infusion [1, 5]: 6/17 (35.3%) | Conversion to NSR at any time within 2.5 hrs after start of infusion [1, 6]: 6/16 (37.5%) | Conversion to NSR at any time within 2.5 hrs after start of infusion ([1]; female, age <65 yrs, 0.4 mg/kg i.v.): 2/5 (40.0%) | Conversion to NSR at any time within 2.5 hrs after start of infusion ([1]; female, age <65 yrs, 0.6 mg/kg i.v.): 1/3 (33.3%) | Conversion to NSR at any time within 2.5 hrs after start of infusion ([1]; female, age >=65 yrs, 0.4 mg/kg i.v.): 4/12 (33.3%) | Conversion to NSR at any time within 2.5 hrs after start of infusion ([1]; female, age >=65 yrs, 0.6 mg/kg i.v.): 5/13 (38.5%) | Conversion to NSR at any time within 2.5 hrs after start of infusion [1, 7]: 18/35 (51.4%) | Conversion to NSR at any time within 2.5 hrs after start of infusion [1, 8]: 18/26 (69.2%) | Conversion to NSR at any time within 2.5 hrs after start of infusion ([1]; male, age <65 yrs, 0.4 mg/kg i.v.): 10/20 (50.0%) | Conversion to NSR at any time within 2.5 hrs after start of infusion ([1]; male, age <65 yrs, 0.6 mg/kg i.v.): 13/18 (72.2%) | Conversion to NSR at any time within 2.5 hrs after start of infusion ([1]; male, age >=65 yrs, 0.4 mg/kg i.v.): 8/15 (51.4%) | Conversion to NSR at any time within 2.5 hrs after start of infusion ([1]; male, age >=65 yrs, 0.6 mg/kg i.v.): 5/8 (62.5%) | Conversion to NSR at any time within 2.5 hrs after start of infusion (patients converted/total) ([2]; female, 0.4 mg/kg i.v. 30-min infusion, percentage not given): 0/2 | Conversion to NSR at any time within 2.5 hrs after start of infusion [2, 6]: 2/6 (33.3%) | Conversion to NSR at any time within 2.5 hrs after start of infusion [2, 7]: 1/7 (14.3%) | Conversion to NSR at any time within 2.5 hrs after start of infusion [2, 8]: 1/5 (20.0%) | Effect of extension of infusion on conversion rates ([3]; Extension of infusion beyond the times indicated (30 minutes)): did not produce higher conversion rates | Gender difference related to efficacy (conversion rate, male vs female patients) ([3]; First (Phase II) study, active ingredient tedisamil dihydrochloride): higher conversion rate compared to women | Conversion to NSR at any time within 2.5 hrs after start of infusion [3, 5]: 6/19 (31.6%) | Conversion to NSR at any time within 2.5 hrs after start of infusion [3, 6]: 8/22 (36.4%) | Conversion to NSR at any time within 2.5 hrs after start of infusion [3, 7]: 19/42 (45.2%) | Conversion to NSR at any time within 2.5 hrs after start of infusion [3, 8]: 19/31 (61.3%) | Observed TdP (Torsade de Point), distribution by gender (human patients; 30 min infusion regimen): Almost all observed TdP (Torsade de Point) in 30 min regimen were in female human patients | Safety issues, male vs female patients (human patients; First (Phase II) study): fewer safety issues than female human patients | TdP in male human patients (human patients; high dosage on 0.72 in 3114 study): Only one human patient showed TdP | Gender difference related to efficacy (conversion rate, male vs female patients) [4]: higher conversion rate compared to women
